Measurements from patent US9314020B2, “Microbicidal composition” (Dow Global Technologies LLC, priority 2012, dated 2016).

Tests used:
[1] = test system: Pseudomonas aeruginosa ATCC 10145, Aeromonas hydrophila ATCC 7965, and Myroides odoratus (Flavobacterium odoratum) NCIMB 13294; assay: Efficacy against aerobic bacteria in synthetic cooling water (4 h kill, TSB/Resazurin readout); type: cell-based; conditions: for Concentration (ppm a.i.) for complete bacterial kill in 4 hours: DBNPA: DBNPA alone or DBNPA part of DTEA/DBNPA blend; for Concentration (ppm a.i.) for complete bacterial kill in 4 hours: DBMAL: DBMAL alone or DBMAL part of DTEA/DBMAL blend
Method: (§1) The synergism of the biocides combination of the present invention was determined using the method described by Kull, F. C, et. al. in Applied Microbiology 9:538-541 (1961).
(§2) The formula to calculate the synergistic index (SI) is Qa/QA+Qb/QB=SI where
(§3) QA=concentration of compound A in ppm, acting alone produced an end point or if end point could not be established, the highest concentration tested will be used as the end point for the calculation and the SI will be recorded in “less than or <” values
(§4) Qa=concentration of compound A in ppm, in the mixture, which produced an end point
(§5) QB=concentration of compound B in ppm, acting alone produced an end point or if end point could not be established, the highest concentration tested will be used as the end point for the calculation and the SI will be recorded in “less than or <” values
Synthetic cooling water was generated as disclosed in Appendix A and dispensed into three 96-well plates. A stock solution of DBMAL from 12% liquid active (or DBNPA from a solid formulation as appropriate) and a stock solution of DTEA (in the hydrochloride form) derived from a liquid stock stored under anaerobic conditions were generated in the synthetic cooling water. In one 96-well biocide block, the stock solution of DBMAL (or DBNPA as listed) was added to the first row of the master block and diluted 1:1 by row until the testing range has been prepared. In a second 96-well biocide block, the stock solution of DTEA was added to the first column of the master block and diluted 1:1 by column until the testing range has been prepared. Biocides from each DBMAL row in the DBMAL biocide master block were added to the matching experimental row in a 3rd 96 well plate filled with synthetic cooling water. This was repeated, adding biocides from each DTEA column from the DTEA biocide master block to the matching experimental column Working quickly, the following organisms were added from a cell-suspension with an OD600 of ˜0.4 (approximately 1×10^8 cfu/ml) to final concentration of 1×10^7 cfu/ml in the first of the 96 well plates: Pseudomonas aeruginosa ATCC 10145, Aeromonas hydrophila ATCC 7965, and Myroides odoratus (Flavobacterium odoratum) NCIMB 13294. The resulting bacterial final concentration was 3×10^7 cfu/ml in the experimental 96 well block.
The experimental block was placed at 35° C., with the time of exposure started once the last well had been inoculated. At 4 hours, the experimental block was removed from the incubator, and 20 μl of treated cells from each row of the experimental block and were added to the first row of a 96-well plate pre-filled with TSB/Resazurin dye. Each sample from the first row of the TSB/Resazurin dye plate was diluted 1:10 six times by serial dilution moving down the plate by row. The inoculated TSB/Resazurin dye 96-well plate was placed at 35° C. for 24 hours, following that time data interpretation occurred. Color change from purple to pink indicates microbial metabolic activity and designates lack of cell death. Those wells were counted as “growth”. Failure to have color change from purple to pink indicates a lack of microbial metabolic activity and designates cell death. These were counted as “no growth”. […] The efficacy and synergy index of each combo were also included.
(§6) In order to differentiate DBMAL/DTEA combinations from DTEA/DBNPA combinations, DTEA/DBNPA combinations were also tested using the same test procedures and conditions described above.

[2] = test system: Desulfovibrio longus ATCC 51456; assay: Biocidal efficacy against anaerobic bacteria (2 h kill in deoxygenated salt solution); type: cell-based
Method: as §1, §2, §3, §4, §5
Inside an anaerobic chamber (BACTRON anaerobic chamber), a deoxygenated sterile salt solution (3.1183 g of NaCl, 1.3082 mg of NaHCO3, 47.70 mg of KCl, 72.00 mg of CaCl2, 54.49 mg of MgSO4, 172.28 mg of Na2SO4, 43.92 mg of Na2CO3 in 1 L water) was inoculated with Desulfovibrio longus ATCC 51456, a sulfate-reducing bacterium, to a final bacterial concentration of 10^7 to 10^8 CFU/mL. Aliquots of this cell suspension were then treated with DBMAL, DTEA (in the hydrochloride form), and DBMAL/DTEA blends, at selected active concentrations. After the treated cell suspensions were incubated at 35° C. for 2 hours, the biocidal efficacy was determined by minimum tested biocide concentration for 99.999% bacteria kill in the aliquots. Table 1 summarizes the efficacy of each biocide and their blends, and the Synergy Index (SI) of each combination.
as §6

For `N#CC(Br)(Br)C(N)=O` [DBNPA alone], the “Concentration (ppm a.i.) for complete bacterial kill in 4 hours: DBNPA” value (shortened to “Concentration … in 4 hours: DBNPA”) ([1]; experiment 5) was 6.25 ppm a.i, the “Concentration … in 4 hours: DBNPA” value ([1]; experiment 6) was 6.25 ppm a.i and the “Concentration … in 4 hours: DBNPA” value ([1]; experiment 7) was 6.25 ppm a.i. For the same compound, the “Concentration (ppm a.i.) for more than 99.999% bacterial kill in 2 hours: DBNPA” value ([2]; DBNPA alone or DBNPA part of DTEA/DBNPA blend, Table 6) was 25.00 ppm a.i.

With `CCCCCCCCCCSCCN.Cl` [DTEA alone, 2-(decylthio)ethanamine hydrochloride] the “Concentration (ppm a.i.) for complete bacterial kill in 4 hours: DTEA” value (“Concentration … in 4 hours: DTEA” for short) ([1]; DTEA alone or DTEA part of DTEA/DBMAL blend, experiment 1) was 12.50 ppm a.i, the “Concentration … in 4 hours: DTEA” value ([1]; DTEA alone or DTEA part of DTEA/DBMAL blend, experiment 2) was 25.00 ppm a.i and the “Concentration … in 4 hours: DTEA” value ([1]; DTEA alone or DTEA part of DTEA/DBMAL blend, experiment 3) was 25.00 ppm a.i. The “Concentration … in 4 hours: DTEA” value ([1]; DTEA alone or DTEA part of DTEA/DBMAL blend, experiment 4) was 100.00 ppm a.i, the “Concentration … in 4 hours: DTEA” value ([1]; DTEA alone or DTEA part of DTEA/DBNPA blend, experiment 5) was 50.00 ppm a.i and the “Concentration … in 4 hours: DTEA” value ([1]; DTEA alone or DTEA part of DTEA/DBNPA blend, experiment 6) was 100.00 ppm a.i. The “Concentration … in 4 hours: DTEA” value ([1]; DTEA alone or DTEA part of DTEA/DBNPA blend, experiment 7) was 50.00 ppm a.i, the “Concentration (ppm a.i.) for more than 99.999% bacterial kill in 2 hours: DTEA” value ([2]; DTEA alone or DTEA part of DTEA/DBMAL blend, 35° C., 2 hours, Table 1) was 25.00 ppm a.i and the “Concentration (ppm a.i.) for more than 99.999% bacterial kill in 2 hours: DTEA” value ([2]; DTEA alone or DTEA part of DTEA/DBNPA blend, Table 6) was 25.00 ppm a.i.

`NC(=O)C(Br)(Br)C(N)=O` [DBMAL alone, 2,2-dibromomalonamide] was tested, and the “Concentration (ppm a.i.) for complete bacterial kill in 4 hours: DBMAL” value (shortened to “Concentration … in 4 hours: DBMAL”) ([1]; experiment 1) was 25.00 ppm a.i, the “Concentration … in 4 hours: DBMAL” value ([1]; experiment 2) was 25.00 ppm a.i and the “Concentration … in 4 hours: DBMAL” value ([1]; experiment 3) was 25.00 ppm a.i. For the same compound, the “Concentration … in 4 hours: DBMAL” value ([1]; experiment 4) was 50.00 ppm a.i, the “Synergy Index” value ([1]; DTEA/DBMAL blends, experiment 3) was 1.00 and the “Concentration (ppm a.i.) for more than 99.999% bacterial kill in 2 hours: DBMAL” value ([2]; DBMAL alone or DBMAL part of DTEA/DBMAL blend, 35° C., 2 hours, Table 1) was 100.00 ppm a.i.
